Key:
[1] = logP by shake-flask method (n-octanol / 0.9% NaCl, Pt by ICP-OES); assay type: physicochemical; conditions: octanol/water, n = 4
Method: An important factor for the pharmacokinetics and the cellular accumulation of the investigated complexes, their lipophilicity was determined by measuring octanol/water partition coefficients (logP) with the shake-flask method. The logP determination was carried out based on a previously described procedure, modified by us to obtain more accurate and repeatable results.
Weighted amounts of the tested platinum complex were suspended by 10 min sonification in 0.9% NaCl water solution, which was previously saturated with n-octanol, and mixed by shaking for 1 h. A simultaneously similar procedure was performed using 5 mL of n-octanol pre-saturated with 0.9% NaCl. Afterward, both suspensions were mixed together, shaken for an additional 1 h, and centrifuged for 5 min. After phase separation and evaporation in vacuo of 1 mL of sample to dryness, the final concentration of Pt was determined by ICP-OES (λ = 265.945 nm) and the partition coefficients were calculated. For the analysis, all samples were dissolved 1:1000 in 2.5% HCl. Each measurement was repeated four times and the final logP was calculated as the arithmetic mean of the four values.

[2] = system: MCF-7 cells; assay: Total cellular platinum uptake (ICP OES); assay type: cell-based, human; conditions: MCF-7, 4 h exposure, 10 µM
Method: It is necessary to strongly emphasize that the underlined values have a statistically significant lack of variance homogeneity (Fisher–Snedecor’s F-test, Fα/2) with respect to reference drug variance, so Aspin–Welch’s t-test was applied in these cases. […] For ionic compound 8, platinum uptake value was not determined due to Pt concentrations in the cell lysates being below the instrument detection limit (IDL = 10 μg/kg) specified by the manufacturer for the device used.
Cultured MCF-7 cells were seeded at a density of 4 × 10^5 cells/well of culture medium on a 6-well plate (Corning, NY, USA) to a final volume of 2.5 mL. […] The wells without MCF-7 cells were filled with 1 mL of culture medium-containing compound tested to act as a reference for nonspecific platinum complex adsorption on the surface of the well. After incubation, all wells were washed twice with 2 mL of cold PBS, filled with 400 μL of hot (ca 90 °C) 65% nitric acid, and maintained to stand for 2 h. All wells were finally filled with 1600 μL of water and this solution was collected and analyzed using iCAP 7400 Duo ICP OES instrument (Thermo Fisher Scientific) using the plasma axial view (10 s) at λ = 265.945 nm. The amount of Pt per cell was calculated by subtracting the amount of Pt found in the blank well from the amount of Pt found in the cell-containing wells and normalized to the average number of cells per well. The mean and SD values were calculated on the basis of 4 measurements.

[3] = system: A549 (lung adenocarcinoma); assay: In vitro cytotoxicity, sulforhodamine B assay; assay type: cell-based, human; conditions: for IC50 ± SD / IC50: 72 h
Method: (§1) Determination of the cytotoxic activity of compounds tested was performed separately in the normoxia or hypoxia conditions to reveal their potentially bioreductive properties. The experiment was carried out on three human cancer cell lines: MCF-7 breast, ES-2 ovarian and A549 lung adenocarcinoma as well as normal murine embryonic fibroblast BALB/3T3 cell line. In order to facilitate the preparation of solutions of the tested compounds, their initial solutions for dilution were made by dissolving the compounds in acetone. For this purpose, it was not possible to use more polar aprotic solvents (DMSO, DMF) due to the rapid isomerization of some of the tested complexes under their influence.
(§2) All the cell lines were cultured at 37 °C in a humid atmosphere containing 5% CO2. Additionally, in the case of cytotoxicity assay with hypoxic conditions, the cells (MCF-7, ES-2, A549) were maintained at 37 °C in a humid atmosphere containing 5% CO2 and 1% O2 during the entire experiment.
(§3) Twenty-four hours before adding the tested compounds, all cell lines were seeded in 96-well plates ([…] AG & Co, Nümbrecht Germany) in an appropriate media with 10^4 cells per well. All cell lines were exposed to each compound tested at four different concentrations for 72 h. […] Additionally, all cell lines were exposed to acetone (Avantor Performance Materials, Gliwice, Poland) (the solvent used for tested compounds) at concentrations corresponding to those present in tested compounds’ dilutions.
(§4) After 72 h of cell incubation with the compounds tested, the sulforhodamine B (SRB) assay was performed as described by Shekan et al. with minor modifications. The cells were fixed in situ by adding 50 µL per well of cold 50% trichloroacetic acid (Avantor Performance Materials, Gliwice, Poland) and were incubated at 4 °C for one hour. Following that, wells were washed five times with water and air dried. Next, 50 µL of 0.4% solution of sulforhodamine B (Sigma-Aldrich, Steinheim, Germany) in 1% acetic acid (Avantor Performance Materials, Gliwice, Poland) were added to each well and plates were incubated at room temperature for 0.5 h. After incubation time, the unbound dye was removed by washing plates five times with 1% acetic acid, whereas stains bound to cells was solubilized with 10 mM Tris base (Sigma-Aldrich, Steinheim, Germany). The absorbance of each solution was read by the Multiskan RC photometer (Labsystems Diagnostics Oy, Vantaa, Finland) at a 540 nm wavelength. Results are presented as mean IC50 (concentration of the compound tested that inhibits cell proliferation by 50%) ± standard deviation. IC50 values were calculated for each experiment on the basis of four different concentrations using Cheburator software, as described by Nevozhay. The tested compounds at each concentration were tested in triplicates in a single experiment and each experiment was repeated at least three times independently.

[4] = system: ES-2 (ovarian adenocarcinoma); assay: In vitro cytotoxicity, sulforhodamine B assay; assay type: cell-based, human; conditions: 72 h
Method: as §1, §2, §3, §4

[5] = system: MCF-7 (breast adenocarcinoma); assay: In vitro cytotoxicity, sulforhodamine B assay; assay type: cell-based, human; conditions: for growth inhibition stronger than reference cisplatin (factor): MCF-7
Method: as §1, §2, §3, §4

| SMILES | logP ± SD [1] | Total Cellular Platinum Uptake in MCF-7 Cells (± SD) [2] [ng Pt/10^6 Cells] | IC50 ± SD ([3]; A549, hypoxia (1% O2)) | IC50 ([3]; A549, normoxia) [µM] | IC50 ([4]; ES-2, hypoxia (1% O2)) [µM] | IC50 ([4]; ES-2, normoxia) [µM] | IC50 ± SD ([5]; MCF-7, hypoxia (1% O2), 72 h) | IC50 ([5]; MCF-7, normoxia, 72 h) [µM] | effect stronger than reference cisplatin (times) ([3]; A549) | IC50 ([3]; A549, hypoxia (1% O2)) [µM] | growth inhibition stronger than reference cisplatin (factor) [5] | IC50 ([5]; MCF-7, hypoxia (1% O2), 72 h) [µM] |
| --- | --- | --- | --- | --- | --- | --- | --- | --- | --- | --- | --- | --- |
| Cn1cc([N+](=O)[O-])c[n+]1[Pt@SP2-2]([Cl])([Cl])[n+]1cc([N+](=O)[O-])cn1C [Compound 1, cis-dichloridobis(1-methyl-4-nitropyrazole)platinum(II)] | −0.35 ± 0.04 | 27 ± 6 | inactive | 103 ± 28.8 | 109 ± 22.6 | 29.4 ± 24.9 | inactive | 74.7 ± 36.1 | – | – | – | – |
| Cn1cc([N+](=O)[O-])c[n+]1[Pt@SP3-2]([Cl])([Cl])[n+]1cc([N+](=O)[O-])cn1C [Compound 2, trans-dichloridobis(1-methyl-4-nitropyrazole)platinum(II)] | 1.43 ± 0.16, | 32 ± 6 | – | 3.7 ± 2.9 | 1.1 ± 0.3 | 0.7 ± 0.7 | – | 1.8 ± 0.9 | 2.6 | 7.7 ± 7.4 | about seven times | 11.1 ± 5.6 |
| Cn1c([N+](=O)[O-])cc[n+]1[Pt@SP2-2]([Cl])([Cl])[n+]1ccc([N+](=O)[O-])n1C [Compound 3, cis-dichloridobis(1-methyl-5-nitropyrazole)platinum(II)] | −0.31 ± 0.04 | 82 ± 11 | inactive | 53.4 ± 10 | 51.9 ± 16.7 | 75.4 ± 12.3 | – | 10.1 ± 1.4 | – | – | – | 41.5 ± 39.9 |
| Cn1c([N+](=O)[O-])cc[n+]1[Pt@SP3-2]([Cl])([Cl])[n+]1ccc([N+](=O)[O-])n1C [Compound 4, trans-dichloridobis(1-methyl-5-nitropyrazole)platinum(II)] | 0.46 ± 0.00 | 83 ± 12 | inactive | 31 ± 9.5 | 32.3 ± 27 | 41.1 ± 7.1 | – | 7.8 ± 1.3 | – | – | almost two times | 32 ± 9.2 |

— article PMC7768359, “Synthesis of Platinum(II) Complexes with Some 1-Methylnitropyrazoles and In Vitro Research on Their Cytotoxic Activity” (Pharmaceuticals, 2020)
